Measurements: US5185340A, “Pyrimidinyl arylalkyl ethers with antihypertensive activity” (American Home Products Corporation, priority 1992, dated 1993)

Legend:
angiotensin II receptor = assay: Rat adrenal receptor binding assay, displacement of radiolabeled angiotensin II; parameters: species or system rat (male Sprague-Dawley); conditions: rat adrenal cortex membranes; 125I-A II 1 nM; read-out: Inhibition of 125I-Angiotensin II binding, IC50
Procedure: The high affinity of the compounds for the angiotensin II receptor was established using a rat adrenal receptor binding assay, measuring the displacement of radiolabeled angiotensin II (A II) from the receptor, described as follows: Anesthetize male Sprague-Dawley rats (300-400 g body weight) with CO2 and sacrifice by cervical dislocation. Dissect adrenal glands and keep in ice-cold sucrose buffer. (0.2M sucrose, 1 mM EDTA, 10 mM Trizma base, pH=7.2). Remove medulla by squashing. Mince the cortex, rinse and homogenize in a chilled ground glass tissue grinder with 15 ml sucrose buffer. Centrifuge at 3000× g for 10 min. (Sorvall RCSC centrifuge, SS34 rotor 6200 rpm). Decant supernatant through gauze. Centrifuge combined supernatants at 12000× g for 13 min. (Beckman ultracentrifuge, 80Ti rotor, 13000 rpm). Centrifuge the supernatant from the previous step at 102000× g for 60 min. (Beckman ultracentrifuge,80Ti rotor, 38200 rpm). All steps are carried out at 4° C. Resuspend the pellet in 0.5 mL assay buffer (50 mM Tris HCI, 5 mM MgCl2, 0.2% BSA (proteasefree), pH=7.4, 25° C.). Store on ice. Determine membrane protein by Lowry or Bradford assay with BSA as standard. The binding assay is performed in triplicate, in 12×75 mm plastic test tubes or in 96-well plate (final volume of 0.25 mL). Add 140 μL assay buffer. […] Calculate the quantities of hot A II and the cold A II needed and make the dilution. […]

[1] = test system: Angiotensin II infused rat; assay: Reduction of blood pressure in Angiotensin II infused rat; assay type: in vivo; conditions: 3 mg/kg/ml via duodenal cannula
Procedure: In accordance with their ability to antagonize angiotensin II, the compounds of this invention show antihypertensive action in the following A II-infused rat model. Rats are anesthetized with Dial-Urethane (0.60 mL/kg, ip) and the trachea cannulated with PE 240. Either one femoral artery and both femoral veins or the carotid artery and the corresponding jugular vein are cannulated with PE 50. If the jugular vein is cannulated, two cannulas are placed in the one vein. The initial portion of the duodenum (just distal to the stomach) is cannulated with PE 50 via a small midline incision. Arterial pressure and heart rate are measured from the arterial cannula. Ten to 15 min are allowed following surgery for stabilization of arterial pressure. Ganglion blockade is then produced by intravenous administration of mecamylamine at 3 mg/kg (1 mL/kg of a 3 mg/mL solution). Ganglion blockade causes a fall in arterial pressure of about 50 mmHg. Mecamylamine is given every 90 min throughout the remainder of the experiment. An A II infusion is then begun into the other venous cannula at 0.25 μg/kg/min (at […]). The A II infusion returns arterial pressure to or slightly above the control level. Once arterial pressure has stabilized with the A II infusion, baseline values for mean arterial pressure (MAP) and heart rate are taken. The test compound, suspended in methyl cellulose, is then administered via the duodenal cannula at 0.1, 3 or, 30 mg/kg in a volume of 1 mL/kg. Mean arterial pressure and heart rate values are tabulated at 15, 30, 60, 90, 120, 150, 180, 210, and 240 min after administration of the test compound.

Compound	IC50 (angiotensin II receptor) [nM]	% decrease in MAP ([1]; 15 min) [%]	% decrease in MAP ([1]; 90 min) [%]	% decrease in MAP ([1]; 240 min) [%]
CCCc1c(CC)nc(C(F)(F)F)nc1OCc1ccc(-c2ccccc2-c2nnn[nH]2)cc1 [Example 4, 6-Ethyl-5-propyl-4-[[2'-(1H-tetrazol-5-yl)[1,1'-biphenyl]-4-yl]methoxy]-2-(trifluoromethyl)pyrimidine]	200			
FC(F)(F)c1nc2c(c(OCc3ccc(-c4ccccc4-c4nnn[nH]4)cc3)n1)CCCC2 [Example 5, 4-[[2'-(1H-Tetrazol-5-yl)-biphenyl-4-yl]methoxy]-2-trifluoromethyl-5,6,7,8-tetrahydroquinazoline]	38	22	15	0
